# According to patent publication EP4772500A1, “NOVEL ISOXAZOLE COMPOUND AS TM4SF5-SPECIFIC INHIBITOR AND USE THEREOF” (Seoul National University R&DB Foundation, priority 2023, dated 2025):
# Tested on: SNU761-EV cells
# Assay: Western blotting of SLAMF7 expression, control SNU761 cells
# Type: cell-based, human
# Settings: SNU761-EV (FIG. 13d)
# Method: Cell extracts were obtained from cells grown to a density of 70-80% without any treatment, or from cells treated with vehicle DMSO or drugs at the given concentrations for 24 hours. For the extract of hepatocytes or liver cancer cells, a lysis buffer (150 mM NaCl, 1% NP-40, 50 mM Tris-HCl, 0.25% sodium deoxycholate, pH 7.4) including a protease inhibitor cocktail (GenDEPOT) was used. In addition, after washing animal liver tissue twice with PBS, SDS, Na3VO4, and protease inhibitor cocktails (GenDEPOT) were added to a lysis buffer [50 mM Tris-HCl, pH 7.4, 1% NP40, 0.25% sodium deoxycholate, 150 mM NaCl, 1 mM EDTA (based on 500 ml)], followed by treatment at 4°C for 15 minutes. […] After quantification using BCA reagent (Thermo Scientific), a 4 × sample buffer [100% glycerol 4 ml, Tris-HCl, pH 6.8, 2.4 ml, SDS 0.8 g, Bromophenol blue 4 mg, betamercaptoethanol 0.4 ml, H2O 3.1 ml (based on 10 ml)] was added, followed by boiling at 100°C for 5 minutes. […]
# After 24 hours, vehicle DMSO, drug ST-1-025, or ST-5-002 was treated at the given concentrations. […] (f) After treating NK92-EV or NK92-TM4SF5 cells with DMSO or drugs ST-2-001 (1 nM), ST-3-005 (10 nM or 1 µM), ST-5-001, or ST-5-002 (100 nM or 1 µM) for 24 hours, the expression of SLAMF7 expressed on the cell surface was analyzed through immunostaining using flow cytometry. […]
smiles,measurement,value
"Cc1ccc(C(=O)Nc2ccc(-c3cc(-c4ccc(O)cc4)no3)cc2)cc1 [ST-5-002, N-(4-(3-(4-hydroxyphenyl)isoxazole-5-yl)phenyl)-4-methylbenzamide]",expression of SLAMF7,lowered
